# Experimental data reported in patent publication US10632106B2, “Methods of cancer treatment with 2-(1′H-Indole-3′-carbonyl)-thiazole-4-carboxylic acid methyl ester” (Ariagen, Inc., priority 2009, dated 2020).
# Legend:
# [1] = tested on: A375 (human skin cancer) xenografts; assay: A375 xenograft growth inhibition; assay type: in vivo; conditions: ITE 100-200 mg/kg i.p. once daily
# Procedure: (§1) All the procedures related to animal handling, care, and the treatment in the study were performed following guidelines of KeyGen Biotechn Co., Ltd. (Nanjing, China), a contract research organization we hired, based on the guidance of the Association for Assessment and Accreditation of Laboratory Animal Care (AAALAC). Animals were checked for any effects of tumor growth and drug treatment on normal behavior such as mobility, food and water consumption, body weight gain/loss (bodyweights were measured every two days), eye/hair matting, and any other abnormal effect. Death and observed clinical signs were recorded. Individual animals with a tumor volume exceeding 3,000 mm^3 or animals of a group with a mean tumor volume exceeding 2,000 mm^3 were euthanized. In addition, animals showing signs of severe distress and/or pain or losing the capability of accessing adequate food or water were humanely sacrificed.
# (§2) Cell lines HCT116, Siha, MFC were cultured in DMEM medium (high glucose) supplemented with 10% fetal bovine serum (FBS), SW116 and T24 in RPMI-1640 medium with 10% FBS, M14 and A375 in DMEM medium (high glucose) with 10% calf serum (CS), SGC7901 and Ketr-3 in RPMI-1640 medium with 10% CS, and CFPAC-1 in IMDM medium with 10% FBS. All of the cells were cultured, in the presence of 100 U/ml penicillin and 100 μg/ml streptomycin, at 37° C. in an atmosphere of 5% CO2 in air. […] The cells growing in an exponential phase were harvested and counted for tumor inoculation. Cell lines 5180 and U14 were maintained in ascites (peritoneal cavity fluid) of mice and were harvested and counted for tumor inoculation. […]
# (§3) Tumor volume was measured every two days in two dimensions using a caliper and the volume was calculated with a formula of: V=0.5 a×b^2, where a and b are the long and short diameter (in mm) of a tumor, respectively. […] The TGD was calculated as: TGD=T−C, where T was the time (in days) required for tumors in a drug treated group to reach a predetermined mean tumor volume and C the time (in days) in the control group to reach the same volume. […]
# [2] = tested on: S180 (mouse soft tissue cancer/sarcoma) homografts; assay: S180 homograft (syngeneic) growth inhibition in ICR mice; assay type: in vivo; conditions: ITE 200 mg/kg i.p. once daily
# Procedure: as §1, §2, §3
# [3] = end of therapy relative to beginning
compound,measurement,setting,value
"COC(=O)c1csc(C(=O)c2c[nH]c3ccccc23)n1 [ITE, 2-(1′H-indole-3′-carbonyl)-thiazole-4-carboxylic acid methyl ester]",TGD,"[1]; TGD at Vol. 1,000",7 days
same,TGI (%),"[1]; TGI at day 16, TGI=(1−ΔT/ΔC)×100%",60%
same,Weight Loss,[1]; [3],18%
same,TGD,"[2]; TGD at Vol. 2,000",1.5 days
same,TGI (%),"[2]; TGI at day 8, TGI=(1−ΔT/ΔC)×100%",33%
same,Weight Loss,[2]; [3],9%
